The target in data set [1] is T1, CETP (cholesteryl ester transfer protein) (Homo sapiens, UniProt P11597).
T1 sequence (P11597 18-493): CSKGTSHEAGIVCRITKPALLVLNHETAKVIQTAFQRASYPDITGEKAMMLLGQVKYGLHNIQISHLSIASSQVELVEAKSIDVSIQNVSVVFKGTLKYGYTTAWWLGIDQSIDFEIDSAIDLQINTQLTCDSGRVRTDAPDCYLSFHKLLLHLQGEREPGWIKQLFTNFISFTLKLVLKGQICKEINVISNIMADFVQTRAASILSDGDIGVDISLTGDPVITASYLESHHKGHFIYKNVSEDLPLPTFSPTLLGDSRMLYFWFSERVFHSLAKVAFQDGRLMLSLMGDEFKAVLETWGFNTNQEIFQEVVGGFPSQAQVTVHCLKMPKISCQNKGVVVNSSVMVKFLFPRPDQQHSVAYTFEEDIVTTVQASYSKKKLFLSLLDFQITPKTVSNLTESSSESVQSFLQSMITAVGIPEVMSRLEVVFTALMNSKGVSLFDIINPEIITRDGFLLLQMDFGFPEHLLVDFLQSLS
The data set is described as follows: In vitro screening test: inhibitory effect on the activity of CETP (3H-cholesterol ester transfer from HDL to biotinylated LDL, SPA). In kind it is biochemical. Particulars: incubation 24 hours at 37° C., relative to control (CETP+solvent). The method, then: Measurement of an inhibitory effect on the activity of CETP (cholesteryl ester transfer protein)
The measurement of the CETP activity is performed by measuring the transfer of ^3H-cholesterol ester from the HDLs to the biotinylated LDLs.
The transfer is measured after incubation for 24 hours in the presence of donor (HDL), acceptor (LDL) and CETP, with or without inhibitor. The reaction is stopped and the transfer measured by addition of SPA streptavidin beads (Amersham).
The increase in scintillation is proportional to the transfer of ^3H-cholesterol ester via CETP to the LDLs.
To perform the test, 10 μl of ^3H-cholesterol ester HDL, 10 μl of biotinylated LDL and 10 μl of HEPES buffer (50 mM HEPES/[…]/0.1% BSA/0.05% NaN3, pH 7.4) are mixed with 10 μl of CETP (1 mg/ml) and the test product (1 μl of the stock solution at 10 mM in DMSO) or 1 μl of DMSO alone in a 96-well microplate (Costar).
Screening is performed at a final concentration of 10 μM per well in 0.1% of solvent.
The plates are then covered with a film, shaken and incubated under a humid atmosphere at 37° C. for 24 hours.
200 μl of SPA-streptavidin beads solution (Amersham, TRKQ 7005) are added and the radioactivity reading is taken 1 hour later on a scintillation counter (Top Count, Packard) with a reading time of 0.5 minute.
The inhibition results are expressed relative to the control test (CETP+solvent).
The IC 50 values are determined and expressed in μM.

SMILES strings stand for the structures. pIC50: −log10 of the molar value.

For `O=C(Nc1ccc(Cl)c(Cl)c1)c1cc(C(F)(F)F)cc([N+](=O)[O-])c1N1CCCCC1` [Example 1, N-(3,4-Dichlorophenyl)-3-nitro-2-piperid-1-yl-5-trifluoromethylbenzamide], in data set [1], the negative logarithm of the IC50 (pIC50) was 5.84. The same measure, in the same setting: as for `Nc1cc(C(F)(F)F)cc(C(=O)Nc2ccc(Cl)c(Cl)c2)c1N1CCCCC1` [Example 2, 3-Amino-N-(3,4-dichlorophenyl)-2-piperid-1-yl-5-trifluoromethylbenzamide], the figure is 6.03; as for `O=C(Nc1ccc(Cl)c(Cl)c1)c1cc(C(F)(F)F)cc(Br)c1N1CCCCC1` [Example 3, 3-Bromo-N-(3,4-dichlorophenyl)-2-piperid-1-yl-5-trifluoromethylbenzamide], 6.05. Turning to `N#Cc1cc(C(F)(F)F)cc(C(=O)Nc2ccc(Cl)c(Cl)c2)c1N1CCCCC1` [Example 4, 3-Cyano-N-(3,4-dichlorophenyl)-2-piperid-1-yl-5-trifluoromethylbenzamide], the melting point was determined as 175 °C. Take `CC1CCN(c2c(Cl)cc(C(F)(F)F)cc2C(=O)Nc2ccc(Cl)c(Cl)c2)CC1` [Example 6, 3-Chloro-N-(3,4-dichlorophenyl)-2-(4-methylpiperid-1-yl)-5-trifluoromethylbenzamide]: the pIC50 in data set [1] is 6.12.

The term pIC50 denotes −log10 of the IC50, conventionally taken in molar units. Read a high pIC50 as a small IC50. A word on the melting point: it is the temperature of the solid-liquid transition.
